Reference: ChEMBL document CHEMBL1201862, “PubChem BioAssay data set” (2004)
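96-well plates; 48 h exposure; 5 concentrations. Endpoints by linear interpolation between flanking doses. Not reached: highest tested concentration assigned. The concentration for 50% growth inhibition is given as GI50.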 Active and inactive are the calls of the source. Cut-off read from the data, not from the text of the source: active = GI50 up to about 1.1 µM and inactive = higher.

Experiments:
Test in all cases: growth of human tumour cells (NCI), 48 h
[1] = system: RPMI-8226
[2] = system: EKVX
[3] = system: NCI-H522
[4] = system: HT-29
[5] = system: ACHN
[6] = system: HOP-92
[7] = system: OVCAR-8
[8] = system: SW-620
[9] = system: NCI-H23
[10] = system: A498
[11] = system: SF-268
[12] = system: CCRF-CEM
[13] = system: LOX IMVI
[14] = system: M14
[15] = system: HCT-15
[16] = system: RXF 393
[17] = system: SK-OV-3
[18] = system: IGROV-1
[19] = system: MDA-MB-435

Measured: GI50

O=C1C(=O)N(c2cc(Cl)ccc2Cl)C(=O)C(=O)C1c1nc2ccccc2o1
inactive: [1] > 100 µM | [2] > 100 µM | [3] 90.6 µM | [4] > 100 µM | [5] > 100 µM | [6] > 100 µM | [7] > 100 µM | [8] > 100 µM | [9] > 100 µM | [10] > 100 µM | [11] > 100 µM | [12] 30.2 µM | [13] > 100 µM | [14] > 91.8 µM | [16] > 100 µM | [17] > 100 µM | [18] > 100 µM
> 100 µM: [15]

Cc1nc(-c2nc([N+](=O)[O-])c([N+](=O)[O-])[nH]2)cs1
inactive: [1] > 100 µM | [2] > 100 µM | [3] > 100 µM | [4] > 100 µM | [5] > 100 µM | [6] > 100 µM | [8] > 100 µM | [9] > 100 µM | [10] > 100 µM | [11] 88.9 µM | [12] > 100 µM | [13] > 100 µM | [14] > 100 µM | [16] > 100 µM | [17] > 100 µM | [18] > 100 µM

COc1ccc(C2=CC3CCC2C3)cc1 (stereo unspecified)
inactive: [1] > 100 µM | [2] > 100 µM | [3] > 100 µM | [4] > 100 µM | [5] > 100 µM | [6] 59.8 µM | [7] > 100 µM | [8] > 100 µM | [9] > 100 µM | [10] 77.3 µM | [11] > 100 µM | [12] > 100 µM | [13] > 100 µM | [14] > 100 µM | [16] > 100 µM | [17] 12.2 µM | [18] > 100 µM
> 100 µM: [15]

CC1NOC(=O)C1/N=N/c1ccccc1Cl (stereo unspecified)
inactive: [1] 20.4 µM | [2] 88.9 µM | [3] 17.4 µM | [5] 27 µM | [6] 21.6 µM | [7] > 100 µM | [8] > 100 µM | [9] 29.9 µM | [10] 17 µM | [11] 35.1 µM | [12] 40.9 µM | [13] 20.6 µM | [14] 40.6 µM | [16] 26.4 µM | [17] 28.3 µM | [18] 73.1 µM

O=C(O)C1Cc2[nH]c3ccccc3c2C2CCCC12 (stereo unspecified)
inactive: [2] > 100 µM | [3] > 100 µM | [5] > 100 µM | [6] > 100 µM | [7] > 100 µM | [8] > 100 µM | [9] > 100 µM | [10] > 100 µM | [11] > 100 µM | [12] > 100 µM | [13] > 100 µM | [14] > 100 µM | [17] > 100 µM | [18] > 100 µM
> 100 µM: [15]

N=c1oc2cc(O)c(O)cc2cc1C(N)=O
> 100 µM: [15]
inactive: [1] > 100 µM | [2] > 100 µM | [3] 45.1 µM | [4] > 100 µM | [5] > 100 µM | [6] > 100 µM | [7] > 100 µM | [8] > 100 µM | [9] > 100 µM | [10] > 100 µM | [11] 81.3 µM | [12] 33 µM | [13] > 100 µM | [14] > 100 µM | [16] > 100 µM | [17] > 100 µM | [18] > 100 µM

Oc1cccc2nc3cc(CN4CCOCC4)c(CN4CCOCC4)cc3nc12
37.4 µM: [15]
inactive: [2] > 100 µM | [3] 30.9 µM | [4] 48.8 µM | [5] 47.8 µM | [6] 46.7 µM | [7] 44.7 µM | [8] 57.3 µM | [9] > 100 µM | [10] > 100 µM | [11] 48.2 µM | [12] 44.9 µM | [13] 38.3 µM | [14] 18.7 µM | [16] 77.3 µM | [17] 50.6 µM | [18] > 100 µM

CN(C)/C(=N\C#N)N(Cc1ccccc1)Cc1ccccc1
16.6 µM: [15]
inactive: [1] 32.5 µM | [2] > 100 µM | [3] 24.9 µM | [4] 50.9 µM | [5] > 100 µM | [6] 36.3 µM | [7] 87.3 µM | [8] 17.9 µM | [9] > 100 µM | [10] 49 µM | [11] 98.2 µM | [12] 44.2 µM | [13] 36.6 µM | [14] > 100 µM | [16] 42.6 µM | [17] > 100 µM | [18] > 100 µM

NC(=O)c1csc(CCCCCCc2nc(C(N)=O)cs2)n1
inactive: [1] > 50.9 µM | [2] > 100 µM | [3] > 100 µM | [4] > 40.9 µM | [5] > 100 µM | [6] > 100 µM | [7] > 100 µM | [8] > 40.3 µM | [9] > 100 µM | [10] > 100 µM | [11] > 100 µM | [12] > 43.5 µM | [13] > 61.7 µM | [14] > 100 µM | [16] > 100 µM | [17] > 100 µM | [18] > 100 µM
> 100 µM: [15]

COCCOCCOCCOc1cccc2c1C(=O)c1cccc(OCCOCCOCCOC)c1C2=O
> 100 µM: [15]
inactive: [1] 65.3 µM | [2] > 100 µM | [4] > 100 µM | [5] > 100 µM | [6] > 100 µM | [7] > 100 µM | [8] > 100 µM | [9] > 100 µM | [10] > 100 µM | [12] 40.1 µM | [13] 70.1 µM | [14] > 100 µM | [16] 92.9 µM | [17] > 100 µM | [18] > 100 µM

CNC(C)Cc1ccc(O)cc1 (stereo unspecified)
inactive: [1] > 100 µM | [2] > 100 µM | [3] > 100 µM | [4] > 100 µM | [5] > 100 µM | [6] > 100 µM | [7] > 100 µM | [8] > 100 µM | [9] > 100 µM | [10] > 100 µM | [11] > 100 µM | [12] > 100 µM | [13] > 100 µM | [14] > 100 µM | [16] > 100 µM | [17] > 100 µM | [18] > 100 µM
> 100 µM: [15]

O=C1NN=C(c2ccc([N+](=O)[O-])cc2)C1n1nc(-c2ccccc2)c2ccccc2c1=O (stereo unspecified)
> 45.2 µM: [15]
inactive: [1] > 48.6 µM | [2] > 100 µM | [3] > 100 µM | [4] > 100 µM | [5] > 100 µM | [6] > 100 µM | [7] > 88.1 µM | [8] > 34.2 µM | [9] > 100 µM | [10] > 100 µM | [11] > 100 µM | [12] > 65.5 µM | [13] > 76.9 µM | [14] > 100 µM | [16] > 100 µM | [17] > 100 µM | [18] > 100 µM

COc1cccc(-c2nccc3c(OCc4ccccc4)c(OC)c(OC)cc23)c1
inactive: [1] 7.08 µM | [2] > 100 µM | [3] > 100 µM | [4] 12 µM | [5] 54.6 µM | [6] > 100 µM | [7] > 100 µM | [8] > 100 µM | [9] 4.09 µM | [10] > 100 µM | [11] > 100 µM | [12] 5.68 µM | [13] > 100 µM | [14] > 100 µM | [16] 4.51 µM | [17] > 100 µM | [18] > 100 µM
4.72 µM: [15]

C#C[C@H]1CCCCCC1O (stereo partly specified)
inactive: [2] > 100 µM | [3] > 100 µM | [4] > 100 µM | [5] > 100 µM | [6] > 100 µM | [7] > 100 µM | [8] 23.3 µM | [9] > 100 µM | [10] > 100 µM | [11] > 100 µM | [12] 59 µM | [13] 29 µM | [14] > 100 µM | [16] > 100 µM | [17] > 100 µM | [18] > 100 µM
> 100 µM: [15]

ClC1=C(Cc2ccccc2)Cc2ccc3c(c21)CCC3
inactive: [1] 29.4 µM | [2] 39.3 µM | [3] 17.7 µM | [4] 22.6 µM | [5] 29.9 µM | [6] 99.8 µM | [7] 36.8 µM | [19] 28 µM | [8] 25.7 µM | [9] 19.7 µM | [11] 33.2 µM | [12] 27.9 µM | [13] 17.9 µM | [14] > 100 µM | [16] 19.7 µM | [17] 83.6 µM | [18] 41.9 µM
31.3 µM: [15]

COc1cc([C@@H]2c3cc4c(cc3[C@@H](NC(=O)c3cccc(N)c3)C3COC(=O)[C@@H]32)OCO4)cc(OC)c1O (stereo partly specified)
1.99 µM: [15]
inactive: [2] 2.61 µM | [4] 2.83 µM | [7] 1.97 µM | [14] 1.26 µM | [16] 3.42 µM | [17] 1.97 µM | [18] 6.05 µM
active: [1] 0.507 µM | [5] 0.166 µM | [6] 0.946 µM | [8] 0.391 µM | [9] 0.261 µM | [10] 0.76 µM | [11] 0.935 µM | [12] 0.0802 µM | [13] 0.491 µM
